Experimental data as given in patent publication US4316898A, “Cephalosporins” (Boehringer Ingelheim KG, priority 1979, dated 1982).
≈ marks a conversion by molar mass, not a printed value.

Key:
E. coli ATCC 11775 = assay: In vivo test in mice against experimental E. coli infection; parameters: species or system Female NMRI mice; conditions: Escherichia coli, ATCC11775, sc, 168 h; subcutaneous; per dose; dose at which 50% of the animals survived; observation 7 days
Method: (§1) A series of the compounds according to the invention was tested in vivo in mice against experimental infections. As pathogenic bacteria were used E. coli ATCC 11775 and Pseudomonas aeruginosa Walter. An intraperitoneal infection was induced in each mouse with 0.2 ml of a 5% mucin suspension of the bacteria corresponding of approximately 1.4×10^6 E. coli cells and 1.3×10^6 Pseudomonas cells per mouse. Female NMRI mice were used, divided into groups of 10 animals. Two groups were untreated and the remaining groups were treated with different doses of the cephalosporins to be tested to determine the ED50 (dose at which 50% of the animals survived). The groups infected with E. coli were on the first day treated with the test compound three times ([…] post infectionem) and on the second day twice. The groups with the Pseudomonas infection were on the first day treated with the test compound six times (1, 3, 5, 7, 9 and 11 hours post infectionem), and on the following two days twice.
(§2) The observation time was in both cases 7 days.

St. aureus E 88 = assay: Serial dilution test in the microtiter system, MIC against S. aureus E 88 (β-lactamase carrier); type: cell-based; conditions: Staphylococcus aureus, E88, minimum inhibitory concentration, 37° C., 18 to 20 hours
Method: (§3) The tests were performed using the serial dilution test in the microtiter system. The effect of the test compounds on bacteriostasis was examined at the following concentrations: 80, 40, 20, 10, 5, 2.5, 1.25, 0.6, 0.3, 0.08 and 0.02 μgm/ml. The nutrient medium consisted of 10 gm of peptone, 8 gm of meat extract oxoid, 3 gm of sodium chloride, and 2 gm of sec. sodium phosphate diluted with distilled water to […] (pH 7.2-7.4). Only in the test against streptococci 1% of glucose was added. The age of the primary cultures was approximately 20 hours. The standardization of the bacteria suspension was effected using a photometer according to the method of Eppendorf (test tube .phi. 14 mm, filter 546 nm), using for comparison a barium sulfate suspension formed by the addition of 3.0 ml of 1% barium chloride solution to 97 ml of 1% sulfuric acid. After the standardization,Streptococcus aronson was further diluted to a concentration of 1:15, and the other bacteria to a concentration of 1:1500, using a sodium chloride solution.
(§4) 16 mgm of the particular test compound were put into a 10 ml measuring flask, and the flask was subsequently filled to the mark with solvent. The further dilution series was standardized with distilled water or the appropriate solvent.
(§5) The cavities of the microtiter plates were filled with 0.2 ml of nutrient medium. 0.01 ml of the appropriate test compound solution was then added, followed by inoculation with 0.01 ml of the standardized bacteria suspension. The bacteria were incubated at 37° C. for 18 to 20 hours. Control tests using only the solvent were carried out simultaneously.
(§6) The measurement was carried out macroscopically to determine the minimum inhibitory concentration (the lowest still bacteriostatically effective concentration).
(§7) The following test organisms were used:
(§8) Staphylococcus aureus SG 511, St. aureus E 88 (β-lactamase carrier), Escherichia coli ATCC 11 775, Pseudomonas aeruginosa Hamburgensis and Pseudomonas aeruginosa Walter, Serratia macrescens ATCC 13 880, Klebsiella pneumoniae ATCC 10 031 and 272, Proteus mirabilis Hamburgensis, Proteus rettgeri Eb. cloaceae ATCC 13047, and E. coli R+TEM (β-lactamase carrier).
(§9) The following tables show the determined minimum inhibitory concentrations (MIC) for a few representative compounds (E=Na) of the present invention, and two known cephalosporins for comparison: […]

Eb. cloaceae ATCC 13047 = assay: Serial dilution test in the microtiter system, MIC against Eb. cloaceae ATCC 13047; type: cell-based; conditions: minimum inhibitory concentration; 37° C., 18 to 20 hours
Method: as §3, §4, §5, §6, §7, §8, §9

[1] = tested on: Klebsiella pneumoniae 272; assay: Serial dilution test in the microtiter system, MIC against Klebsiella pneumoniae 272; type: cell-based; conditions: minimum inhibitory concentration, 37° C., 18 to 20 hours, read-out: MIC, Klebs. pneum. 272
Method: as §3, §4, §5, §6, §7, §8, §9

[2] = tested on: Staphylococcus aureus SG 511; assay: Serial dilution test in the microtiter system, MIC against S. aureus SG 511; type: cell-based; conditions: SG511, minimum inhibitory concentration, 37° C., 18 to 20 hours
Method: as §3, §4, §5, §6, §7, §8, §9

Proteus rettgeri = assay: Serial dilution test in the microtiter system, MIC against Proteus rettgeri; type: cell-based; conditions: Providencia rettgeri; minimum inhibitory concentration; 37° C., 18 to 20 hours; read-out: MIC, Prot. rettg.
Method: as §3, §4, §5, §6, §7, §8, §9

[3] = tested on: Proteus mirabilis Hamburgensis; assay: Serial dilution test in the microtiter system, MIC against Proteus mirabilis Hamburgensis; type: cell-based; conditions: minimum inhibitory concentration, 37° C., 18 to 20 hours, read-out: MIC, Prot. Mir. Hbg.
Method: as §3, §4, §5, §6, §7, §8, §9

[4] = tested on: Pseudomonas aeruginosa Hamburgensis; assay: Serial dilution test in the microtiter system, MIC against Pseudomonas aeruginosa Hamburgensis; type: cell-based; conditions: minimum inhibitory concentration, 37° C., 18 to 20 hours, read-out: MIC, Pseud. aerug. Hbg.
Method: as §3, §4, §5, §6, §7, §8, §9

[5] = tested on: Pseudomonas aeruginosa Walter; assay: In vivo test in mice against experimental Pseudomonas infection; parameters: species or system Female NMRI mice; conditions: subcutaneous, observation 7 days; for ED50: Pseudomonas aeruginosa, sc, 168 h, per dose, dose at which 50% of the animals survived
Method: as §1, §2

[6] = tested on: Serratia macrescens ATCC 13 880; assay: Serial dilution test in the microtiter system, MIC against Serratia marcescens ATCC 13880; type: cell-based; conditions: read-out: MIC, Serr. marcesc. ATCC 13880
Method: as §3, §4, §5, §6, §7, §8, §9

[7] = tested on: Klebsiella pneumoniae ATCC 10 031; assay: Serial dilution test in the microtiter system, MIC against Klebsiella pneumoniae ATCC 10031; type: cell-based; conditions: minimum inhibitory concentration, 37° C., 18 to 20 hours, read-out: MIC, Klebs. pneum. ATCC 10031
Method: as §3, §4, §5, §6, §7, §8, §9

E. coli R+TEM = assay: Serial dilution test in the microtiter system, MIC against E. coli R+TEM (β-lactamase carrier); type: cell-based; conditions: Escherichia coli, read-out: MIC, E. coli R + TEM
Method: as §3, §4, §5, §6, §7, §8, §9

[8] = tested on: Pseudomonas aeruginosa Walter; assay: Serial dilution test in the microtiter system, MIC against Pseudomonas aeruginosa Walter; type: cell-based; conditions: minimum inhibitory concentration, 37° C., 18 to 20 hours, read-out: MIC, Pseud. aerug. Walter
Method: as §3, §4, §5, §6, §7, §8, §9

[9] = tested on: Escherichia coli ATCC 11 775; assay: Serial dilution test in the microtiter system, MIC against E. coli ATCC 11775; type: cell-based; conditions: minimum inhibitory concentration, 37° C., 18 to 20 hours
Method: as §3, §4, §5, §6, §7, §8, §9

Structure (SMILES)	ED50 (E. coli ATCC 11775) [mg/kg]	MIC (St. aureus E 88) [µg/mL]	MIC (Eb. cloaceae ATCC 13047) [µg/mL]	MIC [1] [µg/mL]	MIC [2] [µg/mL]	MIC (Proteus rettgeri) [µg/mL]	MIC [3] [µg/mL]	MIC [4] [µg/mL]	ED50 [5] [mg/kg]	MIC [6] [µg/mL]	MIC [7] [µg/mL]	MIC (E. coli R+TEM) [µg/mL]	MIC [8] [µg/mL]	MIC [9] [µg/mL]	Mortality, Pseudomonas infection ([5]; at 200 mg/kg per dose)
Cn1nnnc1SCC1=C(C(=O)O)N2C(=O)[C@@H](NC(=O)[C@H](NC(=O)Nc3cnc(C4CC4)nc3O)c3ccc(O)cc3)[C@H]2SC1 [A]	1.6	8 (≈ 12.2 µM)	2 (≈ 3.05 µM)	1 (≈ 1.53 µM)	0.5 (≈ 0.764 µM)	2 (≈ 3.05 µM)	0.5 (≈ 0.764 µM)	8 (≈ 12.2 µM)	15.2	2 (≈ 3.05 µM)	1 (≈ 1.53 µM)	8	8 (≈ 12.2 µM)	0.5 (≈ 0.764 µM)	–
CCCNc1ncc(NC(=O)N[C@@H](C(=O)N[C@@H]2C(=O)N3C(C(=O)O)=C(CSc4nnnn4C)CS[C@H]23)c2ccc(O)cc2)c(O)n1 [B]	1.1	8 (≈ 11.9 µM)	1 (≈ 1.49 µM)	0.5 (≈ 0.744 µM)	1 (≈ 1.49 µM)	1 (≈ 1.49 µM)	0.25 (≈ 0.372 µM)	4 (≈ 5.95 µM)	12.4	1 (≈ 1.49 µM)	0.5 (≈ 0.744 µM)	8	8 (≈ 11.9 µM)	0.5 (≈ 0.744 µM)	–
Cn1nnnc1SCC1=C(C(=O)O)N2C(=O)[C@@H](NC(=O)[C@H](NC(=O)Nc3cnc(NCCCO)nc3O)c3ccc(O)cc3)[C@H]2SC1 [E]	0.8	8 (≈ 11.6 µM)	0.5 (≈ 0.727 µM)	1 (≈ 1.45 µM)	1 (≈ 1.45 µM)	1 (≈ 1.45 µM)	0.13 (≈ 0.189 µM)	4 (≈ 5.82 µM)	11.2	1 (≈ 1.45 µM)	0.5 (≈ 0.727 µM)	16	8 (≈ 11.6 µM)	0.25 (≈ 0.364 µM)	–
Cn1nnnc1SCC1=C(C(=O)O)N2C(=O)[C@@H](NC(=O)[C@H](NC(=O)Nc3cnc(Nc4ccc(S(N)(=O)=O)cc4)nc3O)c3ccc(O)cc3)[C@H]2SC1 [L]	0.15	4 (≈ 5.1 µM)	0.5 (≈ 0.637 µM)	0.06 (≈ 0.0765 µM)	0.5 (≈ 0.637 µM)	0.13 (≈ 0.166 µM)	< 0.06	2 (≈ 2.55 µM)	2.1	0.06 (≈ 0.0765 µM)	0.06 (≈ 0.0765 µM)	2	2 (≈ 2.55 µM)	< 0.03	–
Cn1nnnc1SCC1=C(C(=O)O)N2C(=O)[C@@H](NC(=O)[C@H](NC(=O)Nc3cnc(NC4CCC(O)CC4)nc3O)c3ccc(O)cc3)[C@H]2SC1 (some centres unmarked) [C]	0.4	8 (≈ 11 µM)	0.5 (≈ 0.687 µM)	0.5 (≈ 0.687 µM)	1 (≈ 1.37 µM)	1 (≈ 1.37 µM)	0.13 (≈ 0.179 µM)	4 (≈ 5.5 µM)	4.2	0.5 (≈ 0.687 µM)	0.5 (≈ 0.687 µM)	8	4 (≈ 5.5 µM)	0.13 (≈ 0.179 µM)	–
CNS(=O)(=O)c1ccc(Nc2ncc(NC(=O)N[C@@H](C(=O)N[C@@H]3C(=O)N4C(C(=O)O)=C(CSc5nnnn5C)CS[C@H]34)c3ccc(O)cc3)c(O)n2)cc1 [K]	0.3	4 (≈ 5.01 µM)	0.5 (≈ 0.626 µM)	0.13 (≈ 0.163 µM)	0.5 (≈ 0.626 µM)	0.25 (≈ 0.313 µM)	0.06 (≈ 0.0751 µM)	4 (≈ 5.01 µM)	3.6	0.13 (≈ 0.163 µM)	0.06 (≈ 0.0751 µM)	2	2 (≈ 2.5 µM)	< 0.03	–
CO/N=C(\C(=O)N[C@@H]1C(=O)N2C(C(=O)O)=C(COC(N)=O)CS[C@H]12)c1ccco1 [Cefuroxim, reference compound]	37	16 (≈ 37.7 µM)	32 (≈ 75.4 µM)	4 (≈ 9.43 µM)	1 (≈ 2.36 µM)	2 (≈ 4.71 µM)	0.5 (≈ 1.18 µM)	> 100	–	8 (≈ 18.9 µM)	2 (≈ 4.71 µM)	4	> 100	8 (≈ 18.9 µM)	all animals died
